In PubChem BioAssay (NCI):
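Protocol summary: plate cells (96-well), add compound at 5 concentrations, incubate 48 h, interpolate endpoints linearly. TGI: concentration producing complete growth inhibition.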

What was measured:
Test in all cases: NCI tumour cell line growth inhibition, 48 h
[1] = system: DLD-1 colon
[2] = system: DMS 114 small cell lung
[3] = system: DMS 273 small cell lung
[4] = system: HOP-18 NSCLC
[5] = system: KM20L2 colon
[6] = system: LXFL 529 NSCLC
[7] = system: M19-MEL melanoma
[8] = system: MDA-N
[9] = system: RPMI-8226 leukemia
[10] = system: RXF-631 renal
[11] = system: SNB-78 CNS
[12] = system: XF 498 CNS
[13] = system: P388 leukemia
[14] = system: P388/ADR leukemia
[15] = system: SN12K1 renal

SMILES	TGI [1] [µM]	TGI [2] [µM]	TGI [3] [µM]	TGI [4] [µM]	TGI [5] [µM]	TGI [6] [µM]	TGI [7] [µM]	TGI [8] [µM]	TGI [9] [µM]	TGI [10] [µM]	TGI [11] [µM]	TGI [12] [µM]	TGI [13] [µM]	TGI [14] [µM]	TGI [15] [µM]
Cc1c2cc[n+](C)cc2c(C)c2c1sc1ccccc12	51.2	2.57	7	36.2	31.8	5.13	4.04	11.3	5.68	14.4	8.41	2.69	–	–	–
CC1CC(C2=CC=CCS2)=Nc2ccccc2S1 (stereo unspecified)	> 100	–	> 100	> 100	> 100	> 100	> 100	–	> 100	> 100	> 100	> 100	–	–	–
Cc1ccc(S(=O)(=O)N[C@H](C(=O)O)c2ccccc2)cc1	> 100	–	> 100	> 100	> 100	> 100	> 100	–	> 100	> 100	–	> 100	–	–	–
COc1ccc(C(=O)c2cc(OC)c(OC)c(OC)c2)cc1	> 100	> 100	> 100	> 100	–	> 100	> 100	0.0452	76.3	> 100	–	> 27.7	–	–	–
NC1=NC(=O)/C(=C/c2ccccc2[N+](=O)[O-])C(N)=N1	> 100	> 100	> 100	> 100	> 100	> 100	> 100	–	> 100	> 100	> 100	> 100	–	–	–
O=C[C@@H](CO)O[C@H](C=O)c1c[nH]c(=O)[nH]c1=O	493	232	265	267	310	–	406	307	672	–	890	86.7	307	373	183
Cc1ccccc1NC(=O)C(=O)C(C#N)c1ccc(Cl)cc1 (stereo unspecified)	> 100	> 100	> 100	> 100	> 100	> 100	–	–	48.8	> 100	> 100	> 100	–	–	–
O=C1[C@@H]2C(c3ccccc3Br)=NO[C@@H]2C(=O)N1c1ccc(Cc2ccc(N3C(=O)[C@H]4C(c5ccccc5Br)=NO[C@H]4C3=O)cc2)cc1	> 100	> 100	> 100	> 100	> 100	> 100	> 100	–	> 100	> 100	> 100	> 100	–	–	–
COc1cc(/C=C/c2ccncc2)cc(OC)c1OC	> 100	> 100	> 100	> 100	> 100	> 100	–	–	> 100	> 100	> 100	91.3	–	–	–
